According to US12083124B2 (Incyte Corporation, priority 2019, dated 2024):
Read-outs that look alike come from different tables or passages of the source.

Tests used:
[1] = target: wild-type un-phosphorylated FGFR3 (Homo sapiens, UniProt P22607); assay: FGFR Enzymatic Assay (FRET peptide phosphorylation), FGFR3
[2] = target: wild-type un-phosphorylated FGFR1 (Homo sapiens, UniProt P11362); assay: FGFR Enzymatic Assay (FRET peptide phosphorylation), FGFR1; settings: pre-incubated for 4 hours
[3] = target: wild-type un-phosphorylated FGFR4 (Homo sapiens, UniProt P22455); assay: FGFR Enzymatic Assay (FRET peptide phosphorylation), FGFR4
[4] = target: wild-type un-phosphorylated FGFR2 (Homo sapiens, UniProt P21802); assay: FGFR Enzymatic Assay (FRET peptide phosphorylation), FGFR2
[5] = FGFR1, wild-type un-phosphorylated FGFR1
[6] = read-out: FGFR1, wild-type un-phosphorylated FGFR1
[7] = read-out: FGFR4, wild-type un-phosphorylated FGFR4, pre-incubated for 4 hours
[8] = read-out: FGFR2, wild-type un-phosphorylated FGFR2, pre-incubated for 4 hours

wild-type un-phosphorylated FGFR2, sequence (P21802 22-821): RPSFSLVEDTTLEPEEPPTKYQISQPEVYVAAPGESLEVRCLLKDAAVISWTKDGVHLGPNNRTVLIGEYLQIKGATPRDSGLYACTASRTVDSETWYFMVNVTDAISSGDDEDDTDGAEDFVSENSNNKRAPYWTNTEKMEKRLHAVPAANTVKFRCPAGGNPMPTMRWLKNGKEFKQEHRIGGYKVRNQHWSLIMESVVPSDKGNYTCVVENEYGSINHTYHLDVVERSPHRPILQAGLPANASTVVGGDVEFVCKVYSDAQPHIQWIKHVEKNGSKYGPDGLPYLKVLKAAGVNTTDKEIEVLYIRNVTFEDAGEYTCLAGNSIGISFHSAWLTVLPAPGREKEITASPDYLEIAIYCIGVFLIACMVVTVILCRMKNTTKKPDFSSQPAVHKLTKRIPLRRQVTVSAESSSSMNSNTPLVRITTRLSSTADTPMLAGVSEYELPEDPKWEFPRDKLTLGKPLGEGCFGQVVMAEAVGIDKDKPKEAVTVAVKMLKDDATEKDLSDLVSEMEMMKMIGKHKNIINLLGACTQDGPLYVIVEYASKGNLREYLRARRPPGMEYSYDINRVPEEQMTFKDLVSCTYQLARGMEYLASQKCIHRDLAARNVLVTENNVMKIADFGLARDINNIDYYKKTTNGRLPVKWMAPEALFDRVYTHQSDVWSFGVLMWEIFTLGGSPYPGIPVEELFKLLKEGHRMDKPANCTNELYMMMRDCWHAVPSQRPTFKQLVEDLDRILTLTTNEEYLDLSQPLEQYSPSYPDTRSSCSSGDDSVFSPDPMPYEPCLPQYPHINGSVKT
wild-type un-phosphorylated FGFR1, sequence (P11362 22-822): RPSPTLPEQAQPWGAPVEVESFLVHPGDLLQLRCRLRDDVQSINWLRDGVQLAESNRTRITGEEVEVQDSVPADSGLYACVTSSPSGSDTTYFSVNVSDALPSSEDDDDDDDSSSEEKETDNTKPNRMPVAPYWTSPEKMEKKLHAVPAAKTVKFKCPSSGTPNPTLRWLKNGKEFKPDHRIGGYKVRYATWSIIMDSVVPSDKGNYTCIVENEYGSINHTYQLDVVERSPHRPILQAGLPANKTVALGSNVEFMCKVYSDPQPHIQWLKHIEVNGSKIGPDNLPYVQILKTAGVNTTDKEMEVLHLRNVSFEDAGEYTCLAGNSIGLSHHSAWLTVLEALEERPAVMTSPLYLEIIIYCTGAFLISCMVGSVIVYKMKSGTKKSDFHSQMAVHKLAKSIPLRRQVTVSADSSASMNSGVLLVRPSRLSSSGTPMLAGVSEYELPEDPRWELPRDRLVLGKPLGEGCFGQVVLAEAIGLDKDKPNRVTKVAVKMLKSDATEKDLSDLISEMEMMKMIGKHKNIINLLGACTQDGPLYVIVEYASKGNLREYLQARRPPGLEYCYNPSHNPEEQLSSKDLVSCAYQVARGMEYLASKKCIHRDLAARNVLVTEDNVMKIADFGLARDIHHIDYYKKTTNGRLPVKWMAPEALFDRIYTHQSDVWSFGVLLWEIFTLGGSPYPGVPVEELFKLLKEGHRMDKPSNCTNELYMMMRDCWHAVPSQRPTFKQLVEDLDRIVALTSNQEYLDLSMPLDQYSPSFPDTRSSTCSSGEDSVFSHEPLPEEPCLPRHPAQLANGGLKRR
wild-type un-phosphorylated FGFR3, sequence (P22607 23-806): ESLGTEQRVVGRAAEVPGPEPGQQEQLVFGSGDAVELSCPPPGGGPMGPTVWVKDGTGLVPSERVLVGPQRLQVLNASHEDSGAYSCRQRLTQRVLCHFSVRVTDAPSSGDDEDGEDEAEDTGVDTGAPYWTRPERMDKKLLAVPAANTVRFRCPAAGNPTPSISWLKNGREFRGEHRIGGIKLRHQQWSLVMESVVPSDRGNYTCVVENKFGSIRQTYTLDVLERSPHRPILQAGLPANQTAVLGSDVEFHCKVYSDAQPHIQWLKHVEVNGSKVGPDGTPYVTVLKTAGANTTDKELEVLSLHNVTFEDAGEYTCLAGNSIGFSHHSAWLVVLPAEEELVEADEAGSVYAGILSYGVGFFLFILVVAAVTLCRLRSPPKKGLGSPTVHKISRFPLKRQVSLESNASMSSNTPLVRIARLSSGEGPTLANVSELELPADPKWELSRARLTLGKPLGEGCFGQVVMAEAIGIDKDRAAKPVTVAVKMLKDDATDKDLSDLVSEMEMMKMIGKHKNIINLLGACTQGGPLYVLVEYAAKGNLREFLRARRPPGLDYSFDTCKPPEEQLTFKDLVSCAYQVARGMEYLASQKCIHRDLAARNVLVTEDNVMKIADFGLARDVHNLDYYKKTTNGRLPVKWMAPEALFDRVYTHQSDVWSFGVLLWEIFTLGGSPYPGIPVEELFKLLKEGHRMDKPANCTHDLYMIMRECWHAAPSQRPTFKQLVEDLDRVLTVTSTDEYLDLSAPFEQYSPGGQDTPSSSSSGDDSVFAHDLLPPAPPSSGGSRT
wild-type un-phosphorylated FGFR4, sequence (P22455 22-802): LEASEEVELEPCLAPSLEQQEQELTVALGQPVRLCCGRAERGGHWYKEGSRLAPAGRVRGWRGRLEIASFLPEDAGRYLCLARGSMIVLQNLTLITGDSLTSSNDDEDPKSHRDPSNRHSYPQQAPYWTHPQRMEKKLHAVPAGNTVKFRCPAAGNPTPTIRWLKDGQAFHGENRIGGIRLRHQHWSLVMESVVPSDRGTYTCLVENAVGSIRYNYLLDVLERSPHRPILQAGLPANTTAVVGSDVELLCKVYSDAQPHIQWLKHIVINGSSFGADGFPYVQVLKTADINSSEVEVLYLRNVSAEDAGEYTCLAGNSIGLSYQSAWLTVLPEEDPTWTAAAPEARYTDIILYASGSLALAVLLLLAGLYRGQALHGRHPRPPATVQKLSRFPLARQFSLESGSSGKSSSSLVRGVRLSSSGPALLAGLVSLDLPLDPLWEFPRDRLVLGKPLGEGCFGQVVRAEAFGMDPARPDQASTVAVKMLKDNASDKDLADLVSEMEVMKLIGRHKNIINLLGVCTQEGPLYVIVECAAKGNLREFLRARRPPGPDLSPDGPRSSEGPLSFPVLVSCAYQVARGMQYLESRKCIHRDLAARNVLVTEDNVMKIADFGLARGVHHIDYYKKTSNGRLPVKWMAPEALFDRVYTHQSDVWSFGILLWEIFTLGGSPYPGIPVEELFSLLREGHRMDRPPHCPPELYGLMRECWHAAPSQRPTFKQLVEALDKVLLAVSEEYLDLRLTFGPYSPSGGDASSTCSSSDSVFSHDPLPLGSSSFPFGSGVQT

Compound	IC50 [1] [nM]	IC50 [2, 5] [nM]	IC50 [3] [nM]	IC50 [4] [nM]	IC50 [2, 6] [nM]	IC50 [3, 7] [nM]	IC50 [4, 8] [nM]
COc1cc2[nH]nc(-c3ccc(C4CCN(C(=O)[C@H](C)O)CC4)nc3)c2nc1-c1cccc(C)c1C [Example 77, (S)-1-(4-(5-(5-(2,3-Dimethylphenyl)-6-methoxy-1H-pyrazolo[4,3-b]pyridin-3-yl)pyridin-2-yl)piperidin-1-yl)-2-hydroxypropan-1-one]	< 6	> 100	> 100	< 6			
COc1cc2[nH]nc(-c3ccc(N4CCN(C(N)=O)CC4)nc3)c2nc1-c1cccc2c1CCC2 [Example 60, 4-(5-(5-(2,3-Dihydro-1H-inden-4-yl)-6-methoxy-1H-pyrazolo[4,3-b]pyridin-3-yl)pyridin-2-yl)piperazine-1-carboxamide]	< 6			< 6	6 to 40	6 to 40	
COc1cc2[nH]nc(-c3ccc(N4CCOCC4)nc3)c2nc1-c1cccc(CC#N)c1C [Example 56, 2-(3-(6-Methoxy-3-(6-morpholinopyridin-3-yl)-1H-pyrazolo[4,3-b]pyridin-5-yl)-2-methylphenyl)acetonitrile]	< 6	> 100	> 100				6 to 40
COc1cc2[nH]nc(-c3cnn(CCO)c3)c2nc1-c1cccc2c1CCC2 [Example 31, 2-(4-(5-(2,3-Dihydro-1H-inden-4-yl)-6-methoxy-1H-pyrazolo[4,3-b]pyridin-3-yl)-1H-pyrazol-1-yl)ethan-1-ol]	< 6	40 to 100	40 to 100	< 6			
COc1cc2[nH]nc(-c3cnn(C4CN(C(=O)[C@H]5C[C@@H](OC)C5)C4)c3)c2nc1-c1cccc2c1CCC2 [Example 153, (3-(4-(5-(2,3-Dihydro-1H-inden-4-yl)-6-methoxy-1H-pyrazolo[4,3-b]pyridin-3-yl)-1H-pyrazol-1-yl)azetidin-1-yl)((1s,3s)-3-methoxycyclobutyl)methanone]	< 6		40 to 100	< 6	6 to 40		
COc1cc2[nH]nc(-c3cnn(C4CN(C(=O)[C@@H]5COCCN5C)C4)c3)c2nc1-c1cccc2c1CCC2 [Example 128, (S)-(3-(4-(5-(2,3-Dihydro-1H-inden-4-yl)-6-methoxy-1H-pyrazolo[4,3-b]pyridin-3-yl)-1H-pyrazol-1-yl)azetidin-1-yl)(4-methylmorpholin-3-yl)methanone]	< 6		40 to 100	< 6	6 to 40		
COc1cc2[nH]nc(-c3ccc(N4CCN(CCO)CC4)nc3)c2nc1-c1cccc2c1CCC2C#N (centres unmarked) [Example 114, 4-(3-(6-(4-(2-Hydroxyethyl)piperazin-1-yl)pyridin-3-yl)-6-methoxy-1H-pyrazolo[4,3-b]pyridin-5-yl)-2,3-dihydro-1H-indene-1-carbonitrile]	< 6			< 6	6 to 40	6 to 40	
COc1cc2[nH]nc(-c3cnn(C)c3)c2nc1-c1cccc(CC#N)c1C [Example 5, 2-(3-(6-Methoxy-3-(1-methyl-1H-pyrazol-4-yl)-1H-pyrazolo[4,3-b]pyridin-5-yl)-2-methylphenyl)acetonitrile]	< 6	> 100	> 100				6 to 40
COc1cc2[nH]nc(-c3cnn(C4CN(C(=O)[C@H]5COCCN5C)C4)c3)c2nc1-c1cccc2c1CCC2 [Example 127, (R)-(3-(4-(5-(2,3-Dihydro-1H-inden-4-yl)-6-methoxy-1H-pyrazolo[4,3-b]pyridin-3-yl)-1H-pyrazol-1-yl)azetidin-1-yl)(4-methylmorpholin-3-yl)methanone]	< 6		40 to 100	< 6	6 to 40		
COc1cc2[nH]nc(-c3cnn(C4CN(C(=O)[C@H]5CCN5C)C4)c3)c2nc1-c1cccc2c1CCC2 [Example 122, (R)-(3-(4-(5-(2,3-Dihydro-1H-inden-4-yl)-6-methoxy-1H-pyrazolo[4,3-b]pyridin-3-yl)-1H-pyrazol-1-yl)azetidin-1-yl)(1-methylazetidin-2-yl)methanone]	< 6		40 to 100	< 6	6 to 40		
COc1cc2[nH]nc(-c3cnn([C@H]4CC[C@H](O)CC4)c3)c2nc1-c1cccc2c1CCC2 [Example 33, (trans)-4-(4-(5-(2,3-Dihydro-1H-inden-4-yl)-6-methoxy-1H-pyrazolo[4,3-b]pyridin-3-yl)-1H-pyrazol-1-yl)cyclohexan-1-ol]	< 6	40 to 100	> 100	< 6			
COc1cc2[nH]nc(-c3cnn(C)c3)c2nc1-c1cccc2c1OCC2 [Example 4, 5-(2,3-Dihydrobenzofuran-7-yl)-6-methoxy-3-(1-methyl-1H-pyrazol-4-yl)-1H-pyrazolo[4,3-b]pyridine]	< 6	> 100	> 100				6 to 40
COc1cc2[nH]nc(-c3ccc(N4CC(N(C)C(=O)CO)C4)nc3)c2nc1-c1cccc2c1CCC2 [Example 171, N-(1-(5-(5-(2,3-Dihydro-1H-inden-4-yl)-6-methoxy-1H-pyrazolo[4,3-b]pyridin-3-yl)pyridin-2-yl)azetidin-3-yl)-2-hydroxy-N-methylacetamide]	< 6			< 6	6 to 40	6 to 40	
COc1cc2[nH]nc(-c3ccc(C4CN(CCC#N)C4)nc3)c2nc1-c1cccc2c1CCC2 [Example 187, 3-(3-(5-(5-(2,3-Dihydro-1H-inden-4-yl)-6-methoxy-1H-pyrazolo[4,3-b]pyridin-3-yl)pyridin-2-yl)azetidin-1-yl)propanenitrile]	< 6			< 6	6 to 40	6 to 40	
COc1cc2[nH]nc(-c3ccc(C4CN(C(=O)CN(C)C)C4)nc3)c2nc1-c1cccc2c1CCC2 [Example 174, 1-(3-(5-(5-(2,3-Dihydro-1H-inden-4-yl)-6-methoxy-1H-pyrazolo[4,3-b]pyridin-3-yl)pyridin-2-yl)azetidin-1-yl)-2-(dimethylamino)ethan-1-one]	< 6		40 to 100	< 6	6 to 40		
COc1cc2[nH]nc(-c3cnn(Cc4ccccn4)c3)c2nc1-c1cccc(C)c1C [Example 66, 5-(2,3-Dimethylphenyl)-6-methoxy-3-(1-(pyridin-2-ylmethyl)-1H-pyrazol-4-yl)-1H-pyrazolo[4,3-b]pyridine]	< 6	> 100	> 100	< 6			
COc1cc2[nH]nc(-c3cnn(C4CN(C(=O)C5CC5)C4)c3)c2nc1-c1cccc2c1CCC2 [Example 25, Cyclopropyl(3-(4-(5-(2,3-dihydro-1H-inden-4-yl)-6-methoxy-1H-pyrazolo[4,3-b]pyridin-3-yl)-1H-pyrazol-1-yl)azetidin-1-yl)methanone]	< 6		40 to 100	< 6	6 to 40		
[2H]C1(c2ccc(-c3n[nH]c4cc(OC)c(-c5cccc6c5CCC6)nc34)cn2)CN(C(=O)CO)C1 [Example 179, 1-(3-(5-(5-(2,3-Dihydro-1H-inden-4-yl)-6-methoxy-1H-pyrazolo[4,3-b]pyridin-3-yl)pyridin-2-yl)azetidin-1-yl-3-d)-2-hydroxyethan-1-one]	< 6			< 6	6 to 40	6 to 40	
COc1cc2[nH]nc(-c3cnn(C4CN(C(=O)[C@H]5C[C@@H](O)C5)C4)c3)c2nc1-c1cccc2c1CCC2 [Example 126, (3-(4-(5-(2,3-Dihydro-1H-inden-4-yl)-6-methoxy-1H-pyrazolo[4,3-b]pyridin-3-yl)-1H-pyrazol-1-yl)azetidin-1-yl)((cis)-3-hydroxycyclobutyl)methanone]	< 6			< 6	6 to 40	6 to 40	
CCNC(=O)N1CCN(c2ccc(-c3n[nH]c4cc(OC)c(-c5cccc6c5CCC6)nc34)cn2)CC1 [Example 59, 4-(5-(5-(2,3-Dihydro-1H-inden-4-yl)-6-methoxy-1H-pyrazolo[4,3-b]pyridin-3-yl)pyridin-2-yl)-N-ethylpiperazine-1-carboxamide]	< 6			< 6	6 to 40	6 to 40	
COc1cc2[nH]nc(-c3ccc(CN4C[C@H]5C[C@@H]4CO5)nc3)c2nc1-c1cccc2c1CCC2 [Example 200, (1R,4R)-5-((5-(5-(2,3-Dihydro-1H-inden-4-yl)-6-methoxy-1H-pyrazolo[4,3-b]pyridin-3-yl)pyridin-2-yl)methyl)-2-oxa-5-azabicyclo[2.2.1]heptane]	< 6	40 to 100	40 to 100	< 6			
CCN1CC[C@H]1C(=O)N1CC(n2cc(-c3n[nH]c4cc(OC)c(-c5cccc6c5CCC6)nc34)cn2)C1 [Example 140, (S)-(3-(4-(5-(2,3-dihydro-1H-inden-4-yl)-6-methoxy-1H-pyrazolo[4,3-b]pyridin-3-yl)-1H-pyrazol-1-yl)azetidin-1-yl)(1-ethylazetidin-2-yl)methanone]	< 6		40 to 100	< 6	6 to 40		
COc1cc2[nH]nc(-c3ccc(C45CC4CN(CCO)C5)cc3)c2nc1-c1cccc2c1CCC2 (centres unmarked) [Example 158, 2-(1-(4-(5-(2,3-Dihydro-1H-inden-4-yl)-6-methoxy-1H-pyrazolo[4,3-b]pyridin-3-yl)phenyl)-3-azabicyclo[3.1.0]hexan-3-yl)ethan-1-ol]	< 6		40 to 100	< 6	6 to 40		
